# Activity calls are given as the source filed them. No rule for the calls is given here.
# Target: BioA (adenosylmethionine-8-amino-7-oxononanoate aminotransferase), Mycobacterium tuberculosis
# Test: inhibition of purified M. tuberculosis BioA – biochemical, plate reader, dry powder samples, dose response (AID 720592)
# Details: purified Mtb BioA enzyme, plate reader activity
row,SMILES,AC50
1,Cc1cc(C)n2nc(C(=O)Nc3cccnc3)nc2n1,> 20 µM (inactive)
2,COc1ccc(NC(=O)N2CCN(c3ccccc3)CC2)cc1,> 20 µM (inactive)
3,CC(=O)c1ccc(N2CCN(C(=O)c3cccc(Cl)c3)CC2)cc1,> 20 µM (inactive)
4,O=C(Nc1ccc(F)cc1)N1CCN(c2ccccc2)CC1,> 20 µM (inactive)
5,O=C(c1ccc2c(c1)OCO2)N1CCN(c2ccc(Cl)cc2)CC1,> 20 µM (inactive)
6,Cc1ccccc1/C=C(\CCC(=O)O)c1nc2ccccc2s1,> 20 µM (inactive)
7,O=C(Nc1cccnc1)c1cnn2c(C(F)(F)F)cc(-c3ccccc3)nc12,> 20 µM (inactive)
8,COc1ccc(C(=O)N2CCN(c3ccc(C(C)=O)cc3)CC2)cc1,> 20 µM (inactive)

# Same assay, conditions: purified Mtb BioA enzyme, plate reader activity; at 10 µM (top of the series)
row,SMILES,inhibition
1,CC(=O)c1ccc(N2CCN(C(=O)c3ccc4ncsc4c3)CC2)cc1,inactive
2,O=C(Nc1ccc(Cl)c(-c2nc3ccccc3[nH]2)c1)c1cccnc1,inactive
3,O=C(Nc1cccc(Cl)c1)N1CCN(c2ccccc2)CC1,inactive
4,O=C(Nc1ccncc1)c1cc2nc(C3CC3)cc(C(F)F)n2n1,inactive
5,O=C(Nc1ccc2snnc2c1)N1CCOCC1,inactive
6,O=C(Nc1cccc(F)c1)N1CCN(c2ccccc2)CC1,inactive
7,Cc1ccc(-c2cc(C(F)(F)F)n3nc(C(=O)Nc4cccnc4)cc3n2)cc1,inactive
8,O=C(Nc1ccc2snnc2c1)N1CCCCC1,inactive
9,O=C(Nc1cccnc1)c1cc2nc(-c3cccs3)cc(C(F)(F)F)n2n1,inactive
10,CC(=O)c1ccc(N2CCN(C(=O)c3ccc4c(c3)OCCO4)CC2)cc1,inactive
11,Cc1ccc(/C=C(\CCC(=O)O)c2nc3ccccc3s2)cc1,inactive
12,CC(=O)c1ccc(N2CCN(Cc3ccc4c(c3)OCO4)CC2)cc1,inactive
13,CC(=O)c1ccc(N2CCN(C(=O)c3ccc4c(c3)OCO4)CC2)cc1,inactive
14,COc1cccc(C(=O)N2CCN(c3ccc(C(C)=O)cc3)CC2)c1,inactive
15,O=C(O)CC/C(=C\c1ccccc1[N+](=O)[O-])c1nc2ccccc2s1,inactive
16,O=C(Nc1ccccc1)N1CCN(c2ccccc2)CC1,inactive
17,CC(=O)c1ccc(N2CCN(C(=O)c3cccnc3)CC2)cc1,inactive
18,CC(=O)c1ccc(N2CCN(C(=O)c3ccc(Br)cc3)CC2)c(F)c1,inactive
19,Cc1cc(C)n2nc(C(=O)Nc3cccnc3)cc2n1,inactive
20,CCc1ccc(C(=O)N2CCN(Cc3ccc4c(c3)OCO4)CC2)cc1,inactive
21,Cc1nc2cc(NC(=O)N3CCN(c4ccccc4)CC3)ccc2o1,inactive
22,Cc1ccc(/C=C(\CC(=O)O)c2nc3ccccc3s2)cc1[N+](=O)[O-],inactive
23,Cc1nc2ccc(NC(=O)N3CCN(c4ccccc4)CC3)cc2s1,inactive
24,O=C(Nc1ccc2[nH]ccc2c1)N1CCN(c2ccccc2)CC1,inactive
25,COc1cc(/C=C/C(=O)Nc2cccnc2)cc(OC)c1OC,inactive
26,CC(=O)c1ccc(N2CCN(C(=O)c3ccc(Cl)cc3)CC2)cc1,inactive

row,SMILES,inhibition
1,O=C(c1ccc2c(c1)OCO2)N1CCN(c2ccccc2)CC1,inactive
2,CCN(CC)c1ccc2cc(C(=O)c3cccs3)c(=O)oc2c1,inactive
3,Cc1ccc(NC(=O)N2CCN(c3ccccc3)CC2)cc1,inactive
4,COc1cccc(NC(=O)CCC2CCN(C(=O)c3ccc(C(C)=O)s3)CC2)c1,inactive
5,CCc1ccc(N2CCN(C(=O)c3ccc4c(c3)OCO4)CC2)cc1,inactive
6,Cc1cccc(/C=C(\CCC(=O)O)c2nc3ccccc3s2)c1,inactive
7,CC(C)(C)c1ccc(C(=O)N2CCN(c3ccc4c(c3)OCO4)CC2)cc1,inactive
8,COc1cccc(NC(=O)N2CCN(c3ccccc3)CC2)c1,inactive
9,CCOC(=O)N1CCN(C(=O)Nc2ccc3snnc3c2)CC1,inactive
10,CC(=O)c1ccc(N2CCN(C(=O)c3ccc(C)cc3)CC2)cc1,inactive
11,Cc1ccc(/C=C(\CCC(=O)O)c2nc3ccccc3s2)cc1[N+](=O)[O-],inactive
12,Cc1ccc(/C=C(\CCCC(=O)O)c2nc3ccccc3s2)cc1[N+](=O)[O-],inactive
13,O=C(c1ccc2c(c1)OCO2)N1CCN(c2ccc(F)cc2)CC1,inactive
14,COc1ccc(N2CCN(C(=O)c3ccc4c(c3)OCO4)CC2)cc1,inactive
15,O=C(Nc1cccnc1)N1CCN(c2ccccc2)CC1,inactive
16,O=C(Nc1ccc2snnc2c1)N1CCN(c2ccccc2)CC1,inactive
17,O=C(COc1ccc2ccc(=O)oc2c1)N1CCN(c2ccc(F)cc2)CC1,inactive
18,CC(=O)c1ccc(N2CCN(C(=O)c3ccccc3)CC2)cc1,inactive
19,O=C(Nc1cccnc1)c1cnn2c(C(F)F)cc(C3CC3)nc12,inactive
20,COC(=O)c1c(C(=O)OC)c(-c2cccc(F)c2)n2c1CS(=O)C2 (stereo not given),inactive
21,CC(=O)c1ccc(N2CCN(C(=O)c3cccc(F)c3)CC2)cc1,inactive
22,COc1ccc(-c2cc(C(F)(F)F)n3nc(C(=O)Nc4cccnc4)cc3n2)cc1,inactive
23,O=C(O)CC/C(=C\c1ccc([N+](=O)[O-])cc1)c1nc2ccccc2s1,inactive
24,CC(=O)c1ccc(N2CCN(C(=O)c3ccc(F)cc3)CC2)cc1,inactive
25,O=C(c1ccc2c(c1)OCO2)N1CCN(Cc2ccccc2)CC1,inactive
26,O=C(Nc1ccc(Cl)cc1)c1cc2nc(C3CC3)cc(C(F)(F)F)n2n1,inactive
